US7258981B2, “Sensitive proteasome sensor constructs and methods for their design and use” (Clontech Laboratories, Inc., priority 2003, dated 2007)
Where two headings read alike, the source gives them in different places. Square brackets hold non-standard residues; d marks the D form. Peptide text beside a SMILES is read from it. * marks the point of attachment. Nle = CCCC[C@H](N)C(=O)O; Cbz = O=C(OCc1ccccc1)*

Legend:
proteasome [1] = assay: Inventive proteasome sensor sensitivity (detection of proteasome inhibitors); type: cell-based; settings: six hour after treatment as benchmark; broadest stated range
Excerpt: In determining sensitivity of his system, in the present application six hour after treating a cell with a proteasome modifying treatment is employed as a benchmark for sensitivity.

proteasome [2] = settings: GFP-CL1 fusion; flow cytometry; cited from earlier work
proteasome [3] = settings: GFP-MODC fragment fusion; at 20 hours; flow cytometry; cited from earlier work
proteasome [4] = settings: GFP-Ubiquitin fusion; at 15 hours; flow cytometry (FACS); cited from earlier work
proteasome [5] = assay: HEK 293 cells transiently transfected with ZsGreen constructs, MFI by flow cytometry; type: cell-based; settings: HEK 293, transient transfection
Method: (FIGS. 2A&B) To establish if the above proteins are substrate for degradation by the proteasome, HEK 293 cells were transiently transfected with the plasmids and the mean fluorescence intensity (MFI) of the cells was measured by flow cytometry 16 hours after transfection. […] To distinguish between these two possibilities, the transiently transfected cells were treated with ALLN, a well-characterized reversible inhibitor of proteasomal degradation.

proteasome [6] = assay: Stable HEK 293 clone expressing ZsGreend410, fluorescence with or without ALLN; type: cell-based

CC[C@H](C)[C@H](NC(=O)[C@H]([C@@H](C)CC)N(C)C(C)=O)C(=O)N[C@H](C(=O)N[C@@H](CC(C)C)C(=O)[C@@]1(C)CO1)[C@@H](C)O [Epoxomycin]
detection level of inhibitor by the inventive sensor (proteasome [1]): 1 to 30 nM

CC(=O)N[C@@H](CSC(=O)[C@]1([C@@H](O)C(C)C)NC(=O)[C@H](C)[C@@H]1O)C(=O)O [Lactacystin]
detection level of inhibitor by the inventive sensor (proteasome [1]): 10 to 500 nM | sensitivity achieved (inhibitor concentration) (proteasome [2]): 845 nM | sensitivity achieved (inhibitor concentration) (proteasome [3]): 2.5 µM

CC(C)C[C@@H](/C=C/S(C)(=O)=O)NC(=O)[C@H](CC(C)C)NC(=O)[C@H](CC(C)C)NC(=O)OCc1ccccc1 [Z-L3-VS]
sensitivity achieved (inhibitor concentration) (proteasome [4]): 4 µM

CC(C)C[C@@H](C=O)NC(=O)[C@H](CC(C)C)NC(=O)[C@H](CC(C)C)NC(=O)OCc1ccccc1 [MG132] (Cbz-Leu-Leu-Leu-aldehyde)
sensitivity achieved (inhibitor concentration) (proteasome [3]): 2.5 µM

CCCC[C@@H](C=O)NC(=O)[C@H](CC(C)C)NC(=O)[C@H](CC(C)C)NC(C)=O [ALLN] (Ac-Leu-Leu-[Nle]-aldehyde)
detection level of inhibitor by the inventive sensor (proteasome [1]): 50 to 2500 nM | effect of treatment on fluorescence of ZsGreen expressing cells (proteasome [5]): only marginally increases | effect of treatment on fluorescence of pZsGreendl and pZsGreend410-transfected cells (proteasome [5]): increased in a time-dependent fashion | delay before the appearance of fluorescence (proteasome [6]; ZsGreend410-expressing clone, stable transfection): 3 h | effect of treatment on fluorescence of cells stably expressing ZsGreend410 (proteasome [6]; stable HEK 293 clone): sharply increases
